Test results: patent publication US20210183467A1, “SYSTEM AND METHOD FOR USING MICROBIOME TO DE-RISK DRUG DEVELOPMENT” (YALE UNIVERSITY, priority 2018, published 2021)

Assays:
[1] = tested on: 76 defined human gut commensals; format: in vitro ADME
Procedure: Using the combinatorial pooling method described above, each of the 21 drug pools was incubated, plus 3 no-drug control pools, with 76 defined human gut commensals from phyla shown in FIG. 8 grown in pure culture. Over 20,000 time-series profiles were collected, each in quadruplicate, of these specific drug-microbe interactions.

[2] = tested on: human gut microbiome samples; assay: Combinatorial drug pools incubated with human gut microbiome samples, LC-qTOF MS; format: in vitro ADME; details: for metabolism by the human gut microbiome (log2 fold change in amount of drug): 11 individuals randomly selected from the 60 studied, time span of 24 hours
Excerpt: Beginning with the 1,760 FDA-approved drugs in the MicroSource Pharmakon library, a single UHPLC-qTOF MS method was optimized (C18 column; methanol:water gradient; positive ionization mode) that maximizes the number of detected drugs while minimizing run time. […] These drugs, whose molecular weights vary from ˜155 to ˜800 Da, span a wide range of clinical indications. Many have limited or highly variable bioavailability. Other criteria (specific chemical groups, bioavailability, etc) may be used to select other reference drugs, or drugs may be selected from pre-clinical compound libraries. A computational simulation was performed to determine the number of inputs (drugs) that can be represented in increasing numbers of pools, as a function of changing parameters for replicates and overlap. One such pooling scheme assigns each of 271 drugs to a subset of 21 pools, such that each drug is placed in 4 pools but shares a pool with each other drug at most twice as shown in FIG. 5B. FIG. 5B illustrates combinatorial pooling of 271 drugs indicated in black circles into 21 pools (A-U). Pools V-X are no-drug controls. Other pooling schemes may alter the number of drugs, the number of pools, the number of pools each drug is placed in, or the overlap between the pooling patterns of each drug. […] Each of these pools was incubated with each of 60 human gut microbiome samples and 76 defined bacterial species/strains. Samples were collected over time. Liquid chromatography-coupled quadrupole time-of-flight mass spectrometry (MS) described above was used to quantify drug levels by targeted analysis. For each candidate drug-microbiome interaction, 4 pools provide quadruplicate replication for each drug in 4 distinct contexts of other drugs. The other pools serve as negative controls. In this manner, over 16,000 time-series profiles (271 drugs by 60 communities) were collected, each in quadruplicate, from only 21 drug pools.

[3] = patients taking 5-fluorouracil; before withdrawal from the market; cited from earlier work
[4] = Liver S9 enzyme assay of conversion to BVU; format: in vitro ADME
Procedure: Human and murine S9 liver fractions are purchased from Thermo Fisher Scientific (HMS9L and MSMCPL, respectively). Enzyme assays are performed for the deglycosylation of arabinosyluracil derivatives. In brief, assays are performed at 37° C. Reaction volumes are 150 μL with liver S9 fractions at 5 μg/μL and BRV or SRV at 100 μM in 10 mM phosphate buffer (pH 7.4). Reactions are initiated by addition of drugs to pre-warmed reaction mixture. 10 μL samples are collected and quenched in 10 μL acetonitrile on ice at 0, 5, 10, 15, 20, 30, 45, 60, 90, 120, 180, 270, and 360 min after initiation. Substrates and reaction product are extracted and quantified by LC-MS as described below.

[5] = tested on: BT4554; assay: B. thetaiotaomicron loss-of-function screen, bt4554 deletion and complementation; format: in vitro ADME, Bacteroides thetaiotaomicron; details: BT4554 dependence
Excerpt: Two independent strategies were developed to identify the microbiome-encoded DMEs responsible for these chemical transformations. For members of the Bacteroides (the most prominent genus in the human gut microbiome in the experiments), Proteobacteria, and other genetically tractable species, Insertion Sequencing (INSeq) is used to make mapped, arrayed transposon mutant libraries as described in Goodman 2009 and Goodman 2011. From these libraries, a representative set of mutants was identified that collectively include disruptions in most non-essential genes. Each mutant was incubated with the pool of drugs metabolized by the parent species. Genes required for drug metabolism by LC-MS were identified as above.
1,352 B. thetaiotaomicron mutants were selected from an arrayed library as described in Goodman 2009 that disrupt ˜70% of its non-essential genes. Each mutant was incubated with a pool of 30 drugs metabolized by this organism. Drug levels were measured over time as above. […] FIGS. 10A-C show two examples: one of these is brivudine, an antiviral whose primary metabolite (bromovinyluracil; BVU) is dangerously toxic for patients taking 5-fluorouracil, a principal therapy for colorectal cancer. With reference to FIGS. 10A-C, transposon mutants representing disruptions in 70% of B. thetaiotaomicron (Bt) non-essential genes were screened for metabolism of 30 drugs targeted by the parent strain.
The contribution of microbial drug metabolism to serum drug and metabolite exposure was directly quantified by specifically modulating this activity in otherwise identical mice. To this end, the capacity of ten individual bacterial species was first determined, representing five major phyla that dominate the mammalian gut microbiota, for their capacity to convert BRV to BVU as illustrated in FIG. 14A. […]
Frozen stocks are re-suspended in 4 mL pre-reduced GMM and incubated anaerobically at 37° C. for 14 h. […] Substrates and reaction product are extracted and quantified by LC-MS as described below. […]

SMILES: CC(=O)OCC(=O)[C@@]12N=C(C)O[C@@H]1C[C@H]1[C@@H]3CCC4=CC(=O)C=C[C@]4(C)[C@H]3[C@@H](O)C[C@@]12C [deflazacort]
- metabolism by individual species [1]: most of the fast metabolizers of this drug are Bacteroides

SMILES: CC(=O)OCC(CCn1cnc2cnc(N)nc21)COC(C)=O [Famcyclovir]
- metabolism by the human gut microbiome (log2 fold change in amount of drug) [2]: metabolized by the human gut microbiome

SMILES: O=c1[nH]c(=O)n([C@@H]2O[C@H](CO)[C@@H](O)[C@@H]2O)cc1/C=C/Br [SRV, sorivudine]
- patients killed by BVU from the drug [3]: 18 patients
- conversion of SRV to BVU ([4]; human S9 liver fractions): slowly converted
- conversion of SRV to BVU ([4]; murine S9 liver fractions): slowly converted
- conversion of SRV to BVU by B. thetaiotaomicron [5]: slowly converts SRV to BVU in a BT4554-dependent manner

SMILES: Cc1nc2n(c(=O)c1CCN1CCC(c3noc4cc(F)ccc34)CC1)CCCC2 [risperidone]
- metabolism by the human gut microbiome (log2 fold change in amount of drug) [2]: metabolized by the human gut microbiome

SMILES: COc1ccc(/C=C/C(=O)Nc2ccccc2C(=O)O)cc1OC [tranilast]
- interpersonal variability of metabolism by gut microbiome [2]: one individual that metabolized the drug to a much greater extent than the others
- metabolism by the human gut microbiome (log2 fold change in amount of drug) [2]: metabolized by the human gut microbiome
